Entries after “also recorded” stand apart in the source; their conditions may differ.
Columns and labels:
[1] = biological target: T1, bond of purified uPAR to the VN (Homo sapiens, UniProt Q03405); experiment: Bond of soluble biotinylated uPAR to immobilized VN (ELISA); format: binding; conditions: FIG. 2(A): compounds at 50 µM vs DMSO vehicle (100%)
T1 construct: Soluble recombinant uPAR (suPAR; R&D System, Minneapolis, MN, USA); purchased R&D System
Procedure: Soluble recombinant uPAR (suPAR; R&D System, Minneapolis, MN, USA) was biotinylated and purified with the biotinylation module of the proteins ECL Amersham according to the producer’s instructions (GE Healthcare, Buckinghamshire, UK).
The (high-binding) plates with 96 wells (Corning, New York, USA) were covered with 0.5 µg/well of VN (Becton Dickinson Biosciences, Franklin Lakes, NJ, USA) diluted in PBS (0.08 M NaCl, 0.002 M KCl, 0.0115 M Na2HPO4, 0.002 M KH2PO4, pH 7.2) or bovine serum albumin (BSA), as negative control, and incubated at 4° C. for the entire night. After a washing in PBS, the residual bond sites were blocked with 200 µL of BSA at 1% in PBS, for 1 hour at ambient temperature. 25 nmol/L of biotinylated s-uPAR (diluted in PBS, 1 mg/mL of BSA), on its own or in the presence of selected compounds, were placed in the covered wells. The plates were maintained at 4° C. for 1 hour, washed with PBS containing 0.1% Tween 20 and then avidin marked with peroxidase (Amersham), diluted 1:1.500 in PBS containing 10 mg/mL of BSA. After further washings, the substrate of peroxidase o-phenylenediamine (Sigma, St. Louis, MO, USA) was added and left to react for 3 minutes. The reactions were stopped with 1 mol/L H2SO4 and the product was measured at 492 nm by using an automated plate reader (Bio-Rad, Munich, Germany).

BJ cells = experiment: Cell adhesion assay to VN on BJ cells; format: cell-based, human; conditions: FIG. 2(B): BJ cells treated with compounds at 50 µM vs DMSO vehicle (100%)
Procedure: The cell line BJ (ATCC CRL2522) was used as model of human skin fibroblasts. The cells were cultivated in Dulbecco’s Modified Eagle Medium (DMEM) containing fetal bovine serum at 10% (FBS) at 37° C. with CO2 at 5%.
The plates with 96 wells (Nunc, Roskilde, Denmark) were covered with VN (1 µg) or with 100 µl of 1% BSA deactivated with heat in PBS, as negative control, and incubated during the entire night at 4° C. The plates were then blocked 1 hour at ambient temperature with 1% BSA deactivated with heat in 1% PBS. The cells were detached with PBS containing 2 mM of EDTA and washed with DMEM lacking serum, they were counted, plated in the wells with a density of 10^5 cells/well and incubated for 1 hour at 37° C. in the presence of or in the absence of the selected compounds. The cells were then fixed with paraformaldehyde at 3% in PBS for 10 minutes and then incubated with methanol at 2% for 10 minutes. The cells were finally colored for 10 minutes with 0.5% crystal violet in 20% methanol, eluted with 0.1 mol/l of sodium citrate in 50% ethanol (pH 4.2) and the absorbance was measured at 540 nm with a spectrophotometer.

T1 sequence (Q03405 23-305 limits assumed): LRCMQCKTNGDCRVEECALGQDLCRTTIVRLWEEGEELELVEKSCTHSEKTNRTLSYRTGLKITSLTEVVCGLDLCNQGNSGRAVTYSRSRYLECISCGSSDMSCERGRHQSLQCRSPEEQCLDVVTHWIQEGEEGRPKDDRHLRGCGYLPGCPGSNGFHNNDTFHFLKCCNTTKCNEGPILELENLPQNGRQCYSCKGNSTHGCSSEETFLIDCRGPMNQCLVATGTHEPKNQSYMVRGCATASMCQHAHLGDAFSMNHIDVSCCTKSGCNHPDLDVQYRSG

Compound	inhibitory activity against the interaction of the uPAR with the VN in vitro [1]	inhibitory activity against cell adhesion to the VN (BJ cells)
Cc1ccc(C(C)(C)c2ccc(C)cc2O)c(O)c1 [Compound 3, 6,6′-(propan-2,2-diyl)bis(3-methylphenol)]	greater inhibitory activity	greater inhibitory activity
CCCc1cc(-c2ccc(O)c(CCC)c2)ccc1O [Compound 19, 3,3′-dipropyl[1,1′-biphenyl]-4,4′-diol]	greater inhibitory activity	greater inhibitory activity; also recorded: considerable contribution
Cc1cc(Cc2cc(C)cc(C(C)(C)C)c2O)c(O)c(C(C)(C)C)c1 [Compound 20, 6,6′-methylenebis(2-(tert-butyl)-4-methylphenol)]	greater inhibitory activity	greater inhibitory activity; also recorded: considerable contribution
CC(C)(C)c1cc(Cl)c(O)c(Cc2cc(C(C)(C)C)cc(Cl)c2O)c1 [Compound 23, 6,6′-methylenebis(4-(tert-butyl)-2-chlorophenol)]	greater inhibitory activity	greater inhibitory activity; also recorded: considerable contribution
